Counter-ions that a name gives are not always drawn.
Experiment: Stability on storage: HPLC assay for API, impurities and degradants (Examples 1-4)
Type: physicochemical
Details: period of 4 weeks, 2-8° C. to 60° C.
Description: (§1) The injection volume was 10 μL.
as §1

Cc1ccc(N(CC2=NCCN2)c2cccc(O)c2)cc1 [phentolamine mesylate]
stability in water: degrades rapidly

Reference: patent US12721810B2, “Aqueous ophthalmic solutions of phentolamine and medical uses thereof” (Opus Genetics, Inc., priority 2013, dated 2026)
